# Experiments:
# [1] = Lipophilicity relative to human insulin, k′rel, by isocratic RP-HPLC (LiChrosorb RP18); type: physicochemical; conditions: pH 7.3
# Protocol: The elution was monitored by following the UV absorption of the eluate at 214 nm. Void time, t0, was found by injecting 0.1 mM sodium nitrate.
# [2] = system: rabbits; experiment: Single day retardation test: prolongation of the blood glucose lowering effect in rabbits; type: in vivo
# Protocol: The degree of prolongation of the blood glucose lowering effect was studied in rabbits. Each insulin derivative was tested by subcutaneous injection of 12 nmol thereof in, each of six rabbits in the single day retardation test. Blood sampling for glucose analysis was performed before injection and at 1, 2, 4 and 6 hours after injection. The glucose values found are expressed as percent of initial values.
substance,measurement,setting,value
Lys^B29(N^ε-[N^α-tetradecanoyl Aad(−)-OH]) des(B30) Human Insulin [Example 42],"lipophilicity relative to human insulin, k′rel",[1],21
Lys^B29(N^ε-[N^α-tetradecanoyl-γ-carboxy-Glu-]) des(B30) Human Insulin [Example 43],"lipophilicity relative to human insulin, k′rel",[1],10
N^εB29-lithocholoyl insulin [N^εB29-lithocholoyl insulin (Zn-free)],Relative Lipophilicity,[1],51.6
same,"Blood glucose, % of initial 1 h","[2]; 12 nmol subcutaneous, 1 h after injection, 3 Zn^2+/insulin hexamer except where Zn-free",98.3 % of initial
same,"Blood glucose, % of initial 2 h","[2]; 12 nmol subcutaneous, 2 h after injection, 3 Zn^2+/insulin hexamer except where Zn-free",92.3 % of initial
same,"Blood glucose, % of initial 4 h","[2]; 12 nmol subcutaneous, 4 h after injection, 3 Zn^2+/insulin hexamer except where Zn-free",100.5 % of initial
same,"Blood glucose, % of initial 6 h","[2]; 12 nmol subcutaneous, 6 h after injection, 3 Zn^2+/insulin hexamer except where Zn-free",93.4 % of initial
same,Index of protraction,"[2]; calculated from blood glucose values, scaled: 100 = bovine ultralente insulin, 0 = Actrapid insulin",115
